Activity calls are given as the source filed them. No rule for the calls is given here.
Test: inhibitors of TNFa-induced VCAM1 expression, confirmation, imaging, TNFa stimulus, retest and dose response (AID 1013);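 as to cell count: compound on cells 1 h before TNFa then 24 h more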
Settings: TNFa-stimulated cells, VCAM1 expression imaging; for inhibition: at 2 µM, stronger effect = higher value; for cell count: at 10 µM, stronger effect = lower value

Row | Structure (SMILES) | inhibition | cell count
1 | CCC1=NC(c2ccccc2Cl)N(O)C1(C)C (stereo not drawn) | 5.5% (inactive) | –
2 | Cc1nc(SCc2ccc(Br)cc2)[nH]c(=O)c1C | 5.1% (inactive) | –
3 | Cc1nc2sc(C(c3ccc(Cl)cc3)N3CC(C)OC(C)C3)c(O)n2n1 (stereo not drawn) | -3% (inactive) | –
4 | CCc1cccc(CC)c1NC(=O)C1SC(=Nc2ccccc2C)C(c2nc3ccccc3s2)=C1N (stereo not drawn) | 3.9% (inactive) | –
5 | COc1ccccc1C(=O)Nc1ccc2c(c1)nc(CN1CCN(C(C)=O)CC1)n2C | 0.2% (inactive) | –
6 | CC(C)C(=O)Nc1ccc(C(=O)NNC(=O)NC2CCCCC2)cc1 | -6.3% (inactive) | –
7 | Cc1ccc(NC(=O)Cn2nnc(-c3ccccc3NC(=O)c3cccs3)n2)cc1 | 9.2% (inactive) | –
8 | O=C(/C(=C/c1ccc(Cl)cc1)c1nc2ccccc2[nH]1)c1cccs1 | 32.1% (inactive) | 83.7%
9 | O=C(Cn1cccc1C(=O)c1ccccc1)NCCN1CCOCC1 | -13.5% (inactive) | –
10 | COc1ccc(S(=O)(=O)Nc2nc3n(n2)C(c2ccc(Cl)cc2)CC(=O)N3)cc1 (stereo not drawn) | -17.4% (inactive) | –
11 | COc1ccc(CSc2nc3ccccc3[nH]2)cc1 | -2.5% (inactive) | –
12 | C=CCn1c(N)c(C(=O)OCC(C)C)c2nc3ccccc3nc21 | -3.5% (inactive) | –
13 | Oc1ccc(N2CCN(c3ncnc4sc5c(c34)CCC5)CC2)cc1 | 10.1% (inactive) | –
14 | COc1cc(C2Nc3ccc4ncccc4c3C3=C2C(=O)CCC3)cc(OC)c1O (stereo not drawn) | -11.9% (inactive) | –
15 | Cc1ccccc1-c1nc(CN2CCC(C(=O)NCCCN3CC(C)CC(C)C3)CC2)c(C)o1 (stereo not drawn) | 21.3% (inactive) | –
16 | CCN(CC)S(=O)(=O)c1ccc(NC(=O)C(C)N(c2ccc(OC)cc2)S(C)(=O)=O)cc1 (stereo not drawn) | -3.6% (inactive) | –
17 | Cc1cc(C)n(-c2nc3ccccc3nc2N2CCN(C(=O)c3ccc(Cl)cc3)CC2)n1 | -5.2% (inactive) | –
18 | COC(=O)c1[nH]c2cc(OC)ccc2c1NC(=O)CN1CCC(C(N)=O)(N2CCCCC2)CC1 | -3.9% (inactive) | –
19 | C=C1N2CCC(CC2)C1(O)c1ccccc1C (stereo not drawn) | -7.5% (inactive) | –
20 | CCN1CCN(Cc2c(C)[nH]c3ccc(C(=O)OC)cc3c2=O)CC1 | 8.5% (inactive) | –
21 | N#Cc1nc(-c2ccco2)oc1N1CCOCC1 | -13.5% (inactive) | –
22 | COc1cc(/C=N/NC(=O)Nc2ccccc2)ccc1OCCOc1ccccc1C | 33.1% (inactive) | –
23 | CC1CCN(C(=O)C2c3ccccc3C(=O)N3CCc4ccccc4C23)CC1 (stereo not drawn) | 3.6% (inactive) | –
24 | Cc1cc(C)cc(NC(=O)CC2NCCNC2=O)c1 (stereo not drawn) | 7.4% (inactive) | –
25 | O=C(N/N=C/c1ccncc1)c1ccccc1 | 5.8% (inactive) | –
26 | CCOC(=O)c1ccc(NC(=O)Cn2nnc(-c3ccccc3)n2)cc1 | -10% (inactive) | –

Row | Structure (SMILES) | inhibition | cell count
27 | C(=N\Nc1nc2ccccc2s1)/c1cccs1 | 5.1% (inactive) | –
28 | CCCc1nnc(SCC(=O)O)n1/N=C/c1ccc2c(c1)OCO2 | -2% (inactive) | –
29 | CN1C(=O)N(C)C(=O)C2(Cc3ccccc3N3CCOCC32)C1=O (stereo not drawn) | 6.4% (inactive) | –
30 | CCOc1ccc2ccccc2c1/C=N/n1cncn1 | 2.4% (inactive) | –
31 | CO/N=C/C(=N\Nc1ccc(C)cc1)C(=O)c1ccc(OC)cc1 | 29% (inactive) | –
32 | Cc1cccnc1Nc1nc(-c2ccccn2)cs1 | -2.3% (inactive) | –
33 | COc1cccc(/C=N/Nc2nc(Nc3ccccc3)nc(-n3nc(C)cc3C)n2)c1O | -11.8% (inactive) | –
34 | COc1ccc(C)cc1S(=O)(=O)Nc1cccc(SC)c1 | 3.5% (inactive) | –
35 | CCOc1ccc(-n2c(SCC(=O)Nc3ccc(OC)cc3)nc3c(c2=O)SCC3)cc1 | -17% (inactive) | –
36 | Cc1ccc(F)cc1NC(=O)c1ccc2c(c1)OCO2 | -22.8% (inactive) | –
37 | CC1(C)Cc2c(oc3ncn4ncnc4c23)CO1 | -8% (inactive) | –
38 | Cc1cccc(NC(=O)CC2SC(=O)N(c3ccccc3)C2=O)c1 (stereo not drawn) | 3.9% (inactive) | –
39 | CC(=O)c1cccc(Nc2nc(-c3cccc([N+](=O)[O-])c3)cs2)c1 | 9.3% (inactive) | –
40 | CC(=O)Nc1nc2cc3c(cc2s1)OCO3 | -1.4% (inactive) | –
41 | COc1ccc(Cl)c(NC(=O)Nc2c(C)n(-c3ccccc3)c(=O)n2C)c1 | -17.4% (inactive) | –
42 | OCCCCNc1cccc2ccccc12 | -3.2% (inactive) | –
43 | CC(=NCCCO)c1c(O)n(Cc2ccccc2)c(=O)[nH]c1=O | -13.3% (inactive) | –
44 | Cc1cccc(OCCN2CSC(=S)N(C)C2)c1 | -5.7% (inactive) | –
45 | Nc1sccc1C(=O)c1ccc(Cl)cc1 | -3.9% (inactive) | –
46 | COC(=O)Sc1nc(N2CCOCC2)c2c(c1C#N)CC(C)(C)OC2 | -5.9% (inactive) | –
47 | O=C(NC(NC1CCS(=O)(=O)C1)C(=O)c1cccs1)c1ccccc1 (stereo not drawn) | 9.9% (inactive) | –
48 | CCCCOCCCNC(=O)c1cccs1 | -15.4% (inactive) | –
49 | COC(=O)c1ccccc1NC(NC(=O)c1ccco1)C(=O)c1ccc(C)cc1 (stereo not drawn) | -5.6% (inactive) | –
50 | O=C(CC(c1ccccc1)c1ccccc1)NCC1CCCO1 (stereo not drawn) | -7.2% (inactive) | –
51 | CCOC(=O)c1ccc(N2C(=O)CC(N3CCC(O)(c4ccc(Br)cc4)CC3)C2=O)cc1 (stereo not drawn) | -13.9% (inactive) | –
52 | Cc1cc(C)cc(OCCCCCNCCO)c1 | -9.9% (inactive) | –

Row | Structure (SMILES) | inhibition | cell count
53 | CCC(C)C1C(C#N)=C(N)Oc2n[nH]c(-c3ccccc3)c21 (stereo not drawn) | -12.6% (inactive) | –
54 | c1ccc(-c2nnc(CSc3nncs3)o2)cc1 | -12% (inactive) | –
55 | COc1ccccc1N(C)S(=O)(=O)c1ccc(C(=O)NCC(C)C)cc1 | -6.5% (inactive) | –
56 | Cc1nc(S(=O)(=O)N(C)Cc2ccccc2)c(C#N)c(C)c1Cl | 1.7% (inactive) | –
57 | COc1cc(NC(=O)CN2C(=O)NC(C)(CC(C)C)C2=O)cc(OC)c1 (stereo not drawn) | 11.6% (inactive) | –
58 | O=C(Nc1ncc2c(n1)CC(c1ccco1)CC2=O)c1ccc(Cl)cc1 (stereo not drawn) | -0.3% (inactive) | –
59 | Cc1cc(N2CCOCC2)c2c(N)c(C)cc(C)c2n1 | -11% (inactive) | –
60 | O=C(NC(Cc1c[nH]c2ccccc12)C(=O)O)c1ccco1 (stereo not drawn) | -11.2% (inactive) | –
61 | COC(=O)c1ccc(-n2nnnc2SCC(=O)N2CCCCC2)cc1 | 0.2% (inactive) | –
62 | CCCCC(=O)NC(=S)Nc1ccccc1C(=O)Nc1ccccc1 | -2.5% (inactive) | –
63 | O=C(O)c1c[nH]c2ccc(S(=O)(=O)N3CCOCC3)cc12 | 1.4% (inactive) | –
64 | CSc1nc2nccc(-c3ccc(Oc4ccccc4)cc3)n2n1 | -5.9% (inactive) | –
65 | CCOC(=O)N1CCN(C(=O)COc2ccc(Cl)cc2C)CC1 | 5.2% (inactive) | –
66 | CCOc1cc(/C=C2/C(=O)N(c3ccccc3)N=C2C)ccc1OC(=O)c1ccco1 | 3.9% (inactive) | –
67 | O=S(=O)(Nc1ccc(-n2cccc2)cc1)c1ccccc1 | 11.9% (inactive) | –
68 | COc1ccc(CCN(Cc2cc3cccc(C)c3[nH]c2=O)C(=O)N2CCCC2)cc1OC | 5.6% (inactive) | –
69 | Cc1nc(NC(C)C)c2oc3ccccc3c2n1 | 18.8% (inactive) | –
70 | Cn1c(NC(=O)C2c3ccccc3Oc3ccccc32)cc(=O)n(C)c1=O | -2.7% (inactive) | –
71 | Cc1ccc(NC(=O)c2oc3c(c2C)C(=O)CC(C)(C)C3)cc1 | -0.4% (inactive) | –
72 | Cc1n[nH]c(=O)nc1NCc1ccccc1 | -9.9% (inactive) | –
73 | COc1cc2[nH]cc(C(=O)NCCc3ccccc3)c(=O)c2cc1OC | -5.6% (inactive) | –
74 | CC(=O)Nc1ccc(S(=O)(=O)n2cnc(C)c2)cc1 | -13.1% (inactive) | –
75 | CSc1nc2sc(-c3ccccc3)cc2c(=O)n1N | 8.1% (inactive) | –
76 | CCOc1cc(NC(=O)c2ccco2)c(OCC)cc1NC(=O)CCC(=O)NCc1cccnc1 | 3.7% (inactive) | –
77 | O=S(=O)(c1cccs1)N1CCN(CC(O)COc2cccc(Br)c2)CC1 (stereo not drawn) | 4.8% (inactive) | –
78 | CC(=O)c1cccc(S(=O)(=O)N2CCC(n3nnc4cc(F)ccc43)CC2)c1 | 3.2% (inactive) | –

Row | Structure (SMILES) | inhibition | cell count
79 | Cn1c(NCc2c[nH]c3ccccc23)nc2ccccc21 | 18% (inactive) | –
80 | O=C(c1ccc2snnc2c1)N1CCSCC1 | 8.5% (inactive) | –
81 | CCN(Cc1cc2cc(C)ccc2[nH]c1=O)C(=O)c1cccc(OC)c1 | -11.5% (inactive) | –
82 | C=CC(=O)Nc1ccc(Br)cc1 | -8.4% (inactive) | –
83 | Cc1ccccc1Cn1nc(C)c(NC(=O)c2cc(-c3cccs3)on2)c1C | -4.7% (inactive) | –
84 | Cc1c(Cl)cccc1-n1ccnc1SCC(=O)O | -7.8% (inactive) | –
85 | O=C(NCc1ccco1)c1ccc(CS(=O)(=O)Cc2ccc(Cl)cc2)o1 | -2.1% (inactive) | –
86 | O=C(NCc1cccs1)c1nc2c(nnn2Cc2ccccc2Cl)c(=O)[nH]1 | 13.8% (inactive) | –
87 | CCn1c(=O)cc(OCC(=O)NCc2ccco2)c2ccccc21 | -6.7% (inactive) | –
88 | O=C(C1CCC1)N1CCc2cc(S(=O)(=O)Nc3ccc4c(c3)OCCO4)ccc21 | -2.3% (inactive) | –
89 | Cc1oc(-c2ccc(Cl)cc2)cc1-c1nn2c(-c3ccoc3C)nnc2s1 | -0.1% (inactive) | –
90 | Nc1nc2c3ccccc3nc(Cc3ccccc3)n2n1 | -8.7% (inactive) | –
91 | CC(C)c1nnc(NC(=O)CCC(=O)N2CCN(C3CCCCC3)CC2)s1 | 2.9% (inactive) | –
92 | CSc1nnc2n(-c3ccccc3)c(=O)c3c4c(sc3n12)CCC4 | -8.1% (inactive) | –
93 | CCCOC(=O)C1C2C=C[C@]3(CN(CCc4ccccc4)C(=O)[C@H]13)O2 (stereo partly drawn) | 4.5% (inactive) | –
94 | Cc1cnc(NC(=O)C2CCCC2)s1 | 14.1% (inactive) | –
95 | CN(CC(=O)NCc1ccncc1)S(=O)(=O)c1ccc(F)cc1 | 0.2% (inactive) | –
96 | O=C(CS(=O)c1ccc(C(F)(F)F)cc1[N+](=O)[O-])Oc1ccccc1 (stereo not drawn) | 56.9% (inactive) | 109%
97 | O=C(Cc1ccc(-n2cccc2)cc1)NC1CCCCCC1 | 5.8% (inactive) | –
98 | COc1ccc(Nc2nc(N3CCCC3)nc3ccccc23)c(OC)c1 | 12.2% (inactive) | –
99 | O=C(O)c1cc2nc3c(c(C(F)(F)F)n2n1)CCc1ccccc1-3 | 4.4% (inactive) | –
100 | COc1ccc(Cn2nnnc2C(c2cccs2)N2CCSCC2)cc1 (stereo not drawn) | -1.3% (inactive) | –
101 | Cc1cc(C)cc(OCc2nnc(SCC(=O)N3CCN(c4ccccc4)CC3)o2)c1 | -2% (inactive) | –
